Measurements taken from patent publication US11168079B2, “Alkene compounds as farnesoid x receptor modulators” (BRISTOL-MYERS SQUIBB COMPANY, priority 2017, dated 2021).

biological target: T1, human FXR (Homo sapiens, UniProt Q96RI1); test: transient human FXR/Gal4-luciferase reporter assay (HLE GAL-FXR); conditions: FXR EC50 (nM), Gal4-hFXR fusion reporter, HEK293 cells; Table 1
T1 sequence (Q96RI1 262-486 limits assumed): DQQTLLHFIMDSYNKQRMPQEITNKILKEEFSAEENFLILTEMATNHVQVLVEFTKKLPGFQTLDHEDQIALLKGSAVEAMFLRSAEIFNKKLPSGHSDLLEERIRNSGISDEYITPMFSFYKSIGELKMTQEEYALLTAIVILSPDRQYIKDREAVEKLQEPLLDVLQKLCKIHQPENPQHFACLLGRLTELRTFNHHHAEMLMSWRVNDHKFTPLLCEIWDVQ
Method: A Gal4-hFXR fusion construct reporter system was used as the primary assay to characterize compound activity. A construct including 5 copies of the Gal4 promoter response element upstream of a firefly luciferase reporter cDNA was stably expressed in HEK293 cells. This reporter cell line was maintained in Dulbecco's Modified Eagle's medium (DMEM; Gibco) supplemented with 1% penicillin-streptomycin (P/S) solution, 500 μg/mL Zeocin and 10% charcoal/dextran-treated fetal bovine serum (cs-FBS) at 37° C. in a humidified 5% CO2 atmosphere. Another plasmid was constructed in which the human cytomegalovirus promoter in the pcDNA3.1 vector directs the expression of the cDNA encoding a fusion protein comprised of the DNA binding domain from the Gal4 transcription factor fused to the ligand binding domain from human FXR.
For compound testing, 100 nL of the compounds (serial dilutions in DMSO) are dispensed with an Echo acoustic dispenser (Labcyte) into the wells of a Corning/Costar clear bottom 384-well white plate. The transfected cells are harvested, counted, and diluted such that 10-25,000 cells in 25 μL are plated into each well of the 384-well compound assay plate. The compound-treated cells are incubated overnight at 37° C. in a humidified 5% CO2 atmosphere. The next morning 25 μL of Steady-Glo (Promega) are added to each well of the plate, the mixture is incubated for 15 min. with shaking, and luminescence is measured on an Envision (Perkin Elmer) plate reader.

SMILES | EC50
O=C(O)c1ncc(N2CCC(/C=C/c3c(-c4c(Cl)cccc4Cl)noc3C3CC3)CC2)cn1 [Example 27] | 2330 nM
O=C(O)c1cc(O[C@H]2C[C@H](F)C2)c2cc(N3CC(/C=C/c4c(-c5ccccc5C(F)(F)F)noc4C4CC4)C3)ccc2n1 [Example 194] | 159 nM
O=C(O)c1cc(O[C@H]2C[C@@H](F)C2)c2cc(N3CC(/C=C/c4c(-c5cccnc5C(F)(F)F)noc4C4CC4)C3)ccc2n1 [Example 195] | 286 nM
Cn1cc(C(=O)O)c2ccc(N3CC(/C=C/c4c(-c5ccccc5C(F)(F)F)noc4C4CC4)C3)cc21 [Example 201] | 178 nM
O=C(O)c1ccc(-c2ccc(N3CC(/C=C/c4c(-c5ccccc5C(F)(F)F)noc4C4CC4)C3)cc2)cc1 [Example 205] | 189 nM
COc1cc(C(=O)O)nc2ccc(N3CC(/C=C/c4c(-c5ccccc5OC(F)(F)F)noc4C4CC4)C3)cc12 [Example 206] | 216 nM
Cn1cc(C(=O)O)c2ncc(N3CC4C(/C=C/c5c(-c6c(Cl)cncc6Cl)noc5C5CC5)C4C3)cc21 (stereo not drawn) [Example 209] | 472 nM
COc1cc(C(=O)O)nc2c(F)cc(N3CC(/C=C/c4c(-c5ccccc5C(F)(F)F)noc4C4CC4)C3)cc12 [Example 215] | 199 nM
O=C(O)c1cc(OC2CC2)c2cc(N3CC(/C=C/c4c(-c5ccccc5OC(F)(F)F)noc4C(F)(F)F)C3)ccc2n1 [Example 217] | 1400 nM
O=C(O)c1cccc(-c2nnc(N3CC4C(/C=C/c5c(-c6c(Cl)cncc6Cl)noc5C5CC5)C4C3)o2)c1 (stereo not drawn) [Example 218] | 1600 nM
COc1cc(C(=O)O)cc(-c2nnc(N3CC4C(/C=C/c5c(-c6c(Cl)cncc6Cl)noc5C5CC5)C4C3)s2)c1 (stereo not drawn) [Example 223] | 1400 nM
O=C(O)c1cc(-c2ccc(N3CC(/C=C/c4c(-c5c(Cl)cncc5Cl)noc4C4CC4)C3)nc2)cc(C(F)(F)F)c1 [Example 224] | 166 nM

The next lines start with the values.

EC50 | SMILES
154 nM | Cn1cc(C(=O)O)c2ncc(N3CC4C(/C=C/c5c(-c6ccccc6C(F)(F)F)noc5C5CC5)C4C3)cc21 (stereo not drawn) [Example 211]
117 nM | COc1cc(C(=O)O)cc(-c2ccc(N3CC(/C=C/c4c(-c5c(Cl)cncc5Cl)noc4C4CC4)C3)cc2)c1 [Example 219]
107 nM | O=C(O)c1cnn(-c2ccc(N3CC(/C=C/c4c(-c5c(Cl)cncc5Cl)noc4C4CC4)C3)cc2)c1 [Example 220]
71 nM | COc1cc(C(=O)O)nc2c(F)cc(N3CC4C(/C=C/c5c(-c6c(Cl)cncc6Cl)noc5C5CC5)C4C3)cc12 (stereo not drawn) [Example 198]
64 nM | O=C(O)c1cccc(-c2ccc(N3CC(/C=C/c4c(-c5ccccc5C(F)(F)F)noc4C4CC4)C3)cc2)c1 [Example 207]
63 nM | O=C(O)c1cc(O[C@H]2C[C@H](F)C2)c2cc(N3CC4C(/C=C/c5c(-c6ccccc6C(F)(F)F)noc5C5CC5)C4C3)ccc2n1 (stereo partly drawn) [Example 199]
56 nM | COc1cc(C(=O)O)cc(-c2ccc(N3CC(/C=C/c4c(-c5ccccc5C(F)(F)F)noc4C4CC4)C3)cn2)c1 [Example 221]
53 nM | O=C(O)c1cc(OC2CC2)c2cc(N3CC(/C=C/c4c(-c5ccccc5C(F)(F)F)noc4C4CC4)C3)ccc2n1 [Example 196]
47 nM | O=C(O)c1cc2ccc(N3CCC(/C=C/c4c(-c5c(Cl)cncc5Cl)noc4C4CC4)CC3)cc2cn1 [Example 101]
34 nM | COc1cc(C(=O)O)cc(-c2ccc(N3CC(/C=C/c4c(-c5ccccc5C(F)(F)F)noc4C4CC4)C3)nc2)c1 [Example 222]
30 nM | [2H]C([2H])([2H])Oc1cc(C(=O)O)nc2ccc(N3CC4C(/C=C/c5c(-c6c(Cl)cncc6Cl)noc5C5CC5)C4C3)cc12 (stereo not drawn) [Example 202]
21 nM | O=C(O)c1cc(OCC(F)F)c2cc(N3CC4C(/C=C/c5c(-c6c(Cl)cncc6Cl)noc5C5CC5)C4C3)ccc2n1 (stereo not drawn) [Example 200]
21 nM | O=C(O)c1c2ccc(N3CC4C(/C=C/c5c(-c6c(Cl)cccc6Cl)noc5C5CC5)C4C3)cc2nn1CC1CC1 (stereo not drawn) [Example 212]
19 nM | O=C(O)c1cc(O[C@H]2C[C@H](F)C2)c2cc(N3CC4C(/C=C/c5c(-c6c(Cl)cncc6Cl)noc5C5CC5)C4C3)ccc2n1 (stereo partly drawn) [Example 204]
16 nM | O=C(O)c1cc(O[C@H]2C[C@@H](F)C2)c2cc(N3CC4C(/C=C/c5c(-c6c(Cl)cncc6Cl)noc5C5CC5)C4C3)ccc2n1 (stereo partly drawn) [Example 203]
14 nM | O=C(O)c1cc(F)cc(-c2ccc(N3CC(/C=C/c4c(-c5ccccc5C(F)(F)F)noc4C4CC4)C3)nc2)c1 [Example 226]
6 nM | O=C(O)c1cc(-c2ccc(N3CC(/C=C/c4c(-c5ccccc5C(F)(F)F)noc4C4CC4)C3)nc2)cc(C(F)(F)F)c1 [Example 225]

same assay, conditions: HLE GAL-FXR EC50, Gal4-hFXR fusion reporter, HEK293 cells

EC50 | SMILES
247 nM | COc1cc(C(=O)O)cc(-c2csc(N3CC4C(/C=C/c5c(-c6c(Cl)cncc6Cl)noc5C5CC5)C4C3)n2)c1 (stereo not drawn) [Example 208, (E)-3-(2-(6-(2-(5-Cyclopropyl-3-(3,5-dichloropyridin-4-yl)isoxazol-4-yl)vinyl)-3-azabicyclo[3.1.0]hexan-3-yl)thiazol-4-yl)-5-methoxybenzoic acid]
670 nM | COc1cc(C(=O)O)cc(-c2nc(N3CC4C(/C=C/c5c(-c6c(Cl)cncc6Cl)noc5C5CC5)C4C3)ns2)c1 (stereo not drawn) [Example 210, (E)-3-(3-(6-(2-(5-Cyclopropyl-3-(3,5-dichloropyridin-4-yl)isoxazol-4-yl)vinyl)-3-azabicyclo[3.1.0]hexan-3-yl)-1,2,4-thiadiazol-5-yl)-5-methoxybenzoic acid]
107 nM | COc1cc(C(=O)O)cc(-c2nsc(N3CC4C(/C=C/c5c(-c6c(Cl)cncc6Cl)noc5C5CC5)C4C3)n2)c1 (stereo not drawn) [Example 214, (E)-3-(5-(6-(2-(5-Cyclopropyl-3-(3,5-dichloropyridin-4-yl)isoxazol-4-yl)vinyl)-3-azabicyclo[3.1.0]hexan-3-yl)-1,2,4-thiadiazol-3-yl)-5-methoxybenzoic acid]
202 nM | COc1cc(C(=O)O)cc(-c2cnc(N3CC4C(/C=C/c5c(-c6c(Cl)cncc6Cl)noc5C5CC5)C4C3)s2)c1 (stereo not drawn) [Example 216, (E)-3-(2-(6-(2-(5-cyclopropyl-3-(3,5-dichloropyridin-4-yl)isoxazol-4-yl)vinyl)-3-azabicyclo[3.1.0]hexan-3-yl)thiazol-5-yl)-5-methoxybenzoic acid]

test system: Fgf15; test: Acute mouse in vivo assay (PK/PD): Fgf15 gene expression in ileum; conditions: 30 mg/kg, @ 6 h; single oral dose; fold increase relative to vehicle control
Method: (§1) Acute Mouse In Vivo Assay:
(§2) Male, C57BL6/NTac mice, weighing 25-28 g, are purchased from Taconic Labs (Hudson, N.Y.) and maintained on Teklad Global 18% Protein Rodent Diet (Harlan Laboratories). After 1 week acclimation, mice are sorted into groups based upon body weight. Mice are administered a single oral dose of vehicle or experimental compound. Systemic compound exposure is evaluated in plasma derived from blood collected via the submandibular vein at 1 hour post-dose, and at study termination (6 h). At study termination, the animals are euthanized and rapidly dissected. The medial lobe of the liver is divided, with one half being homogenized and analyzed for compound exposure, and the other half saved in RNAlater (Thermo-Fisher Scientific). The ileum is also dissected and preserved in RNAlater. Tissue samples in RNAlater are homogenized with MP Biomedicals' beads. RNA is extracted using the MagMax-96 Total RNA Isolation kit (Thermo-Fisher Scientific) according to the manufacturer's protocol. RNA Concentration is determined with the Nano-Drop 8000 Spectrophotometer (Thermo Fisher). […] Mouse genes analyzed include Nr0b2 (which encodes the small heterodimer partner, SHP), Abcb11 (which encodes the bile salt excretion pump, BSEP), Cyp7a1, & Cyp8b1 in liver, and Fgf15, Fabp6 (which encodes ileal bile acid binding protein, I-BABP), Slc51a (which encodes organic solute transporter alpha subunit, OSTA), and Slc51 b (which encodes organic solute transporter beta subunit, OSTB) in the ileum. The statistical significant changes in FGF15 gene expression are expressed as fold increase and CYP7A1 expression as a percent reduction relative to vehicle control. […]
(§3) Male, C57BL6/NTac mice, weighing 25-28 g, are purchased from Taconic Labs (Hudson, N.Y.) and maintained on Teklad Global 18% Protein Rodent Diet (Harlan Laboratories). […] Systemic compound exposure is evaluated in plasma derived from blood collected via the submandibular vein at 1 hour post-dose, and at study termination (6 h). […] RNA Concentration is determined with the Nano-Drop 8000 Spectrophotometer (Thermo Fisher). […]

SMILES | Mouse in vivo FgF15
O=C(O)c1cc(F)c2nc(N3CCC(/C=C/c4c(-c5c(Cl)cccc5Cl)noc4C4CC4)CC3)sc2c1 [Example 14] | 10 x

same assay, conditions: Mouse PD, dose 3 mg/kg, 6 h

SMILES | Fgf15 (fold change@ 6 h relative to Vehicle)
O=C(O)c1cc2ccc(N3CCC(/C=C/c4c(-c5c(Cl)cncc5Cl)noc4C4CC4)CC3)cc2cn1 [Example 101] | 21

same assay, conditions: Mouse PD, dose 30 mg/kg, 6 h

SMILES | Fgf15 (fold change@ 6 h relative to Vehicle)
O=C(O)c1ncc(N2CCC(/C=C/c3c(-c4c(Cl)cccc4Cl)noc3C3CC3)CC2)cn1 [Example 27] | 2.8

test system: Cyp7a1; test: Acute mouse in vivo assay (PK/PD): Cyp7a1 gene expression in liver; conditions: 30 mg/kg, @ 6 h; single oral dose; percent reduction relative to vehicle control
Method: as §1, §2, §3

SMILES | Mouse in vivo Cyp7a1
O=C(O)c1cc(F)c2nc(N3CCC(/C=C/c4c(-c5c(Cl)cccc5Cl)noc4C4CC4)CC3)sc2c1 [Example 14] | −96%

same assay, conditions: Mouse PD, dose 3 mg/kg, 6 h

SMILES | Cyp7a1 (fold change@ 6 h relative to Vehicle)
O=C(O)c1cc2ccc(N3CCC(/C=C/c4c(-c5c(Cl)cncc5Cl)noc4C4CC4)CC3)cc2cn1 [Example 101] | 0.06

same assay, conditions: Mouse PD, dose 30 mg/kg, 6 h

SMILES | Cyp7a1 (fold change@ 6 h relative to Vehicle)
O=C(O)c1ncc(N2CCC(/C=C/c3c(-c4c(Cl)cccc4Cl)noc3C3CC3)CC2)cn1 [Example 27] | 0.10
